Laboratory results as given in patent US20020169147A1, “Compositions for controlling pests” (priority 2001, published 2002).

What follows are compounds tested on Dermatophagoides pteronyssinus (assay: Efficacy against mites (ticking in plastic dish, rated under a stereomicroscope)). Settings: 0.4 ml applied to ticking; mixed population; rated after 2 hours, 1, 3 and 7 days; sum of three experimental units after end of experiment; control isopropanol/water = 9.0.
Type: in vivo
Description: A mixed population of the species Dermatophagoides pteronyssinus is used.
The upper rim of a plastic dish (Ø 7 cm, height 3 cm) is provided with glue and then covered with a piece of ticking of the same diameter. A spatula-tip full from a culture dish containing mites and feed (ground Tetramin) is placed on the ticking.
The dish is then placed on an inverted Petri dish in a plastic container (33×22 cm, height 6.5 cm), containing saturated sodium chloride solution, and the container is closed with a lid.
The next day, 0.4 ml of the composition of the invention is applied to the material.
The set-up is illuminated by daylight, the temperature is 24-26° C., and the relative atmospheric humidity within the closed plastic container is approximately 75%.
After 2 hours, 1, 3, and 7 days the state of the mites in comparison with a control treated only with isopropanol/water (1:1) is rated under a stereomicroscope (3=numerous mites, 0=no mites). Direct counting is impossible since dead animals are difficult to see.
If required (control, ineffective products), more feed is added.
Three experimental units are set up for each experiment, and after the end of the experiment the sum of the scores is recorded.

Row | SMILES | sum of the scores of the state of the mites (0 = no mites, 9 = numerous mites)
1 | Oc1ccccc1-c1ccccc1 [0.1% o-Phenylphenol, o-Phenylphenol] | 9.0
2 | CCCCCCCCCCCCOS(=O)(=O)[O-].[Na+] [1.0% Na lauryl sulphate, Na lauryl sulphate] | 9.0
3 | O=C(OCc1ccccc1)c1ccccc1 [5.0% Benzyl benzoate, Benzyl benzoate] | 9.0
4 | CC(O)CO (stereo not shown) [5.0% Propylene glycol, Propylene glycol] | 9.0
